The source of these data is US20100160391A1, “Substituted Aminopyridines as Fluorescent Reporters for Amide Hydrolases” (priority 2006, published 2010).

Structures are written as SMILES.

Data set [1] concerns FAAH. The experiment in a line: FAAH kinetic data of literature substrates. The class given is biochemical. Particulars: Vmax/Km of substrate over that of oleamide (5.5 × 10^−2).
Data set [2] deals with FAAH. As to conditions: from Ramarao et al. (AAMCA), De Bank et al. (oleamide); cited from earlier work.
The subject of data set [3] is amidases, human liver S9. The experiment in a line: Specific activity, human liver S9. As to conditions: pH 8.0, 37° C.; NM = not measurable at the same protein concentration as other substrates. The class given is biochemical. How it is done: Comparison of the lowest detection limits of protein concentration of FAAH toward colorimetric and fluorescent substrates. In general, all assays were performed in 96-well styrene flat-bottom microtiter plates with a Spectra Max M2 spectrophotometer at 37° C. for […]. The total volume of each well was 201 μl consisting of 0.1 M sodium phosphate buffer (pH 8.0) (190 μl) containing 1% glycerol and 0.1% Triton-X 100, stock or diluted protein solution (10 μl), and the substrate solution (1 μl) in ethanol (final concentration 200 μM for 10, 11, 13 or 14) or in DMSO (final concentration 25 μM for 12, 15, or 16; 50 μM for 17). The lowest detection limits of microsomal fatty acid amide hydrolase (FAAH) by substrates were determined by the fact that the signal at 10 min after kinetic measurements are equal to or over three times the noise or basal line at 0 min. Colorimetric substrate (16) assays were performed in clear 96-well microtititer plates using an absorbance wavelength at 382 nm. The fluorescent substrates containing 5-amino-2-methoxypyridine (e.g., 10, 13) were measured at an excitation wavelength (302 nm), emission wavelength (396 nm), and auto cutoff wavelength (325 nm). […]

The test system of data set [4] is amidases, human liver microsomes. The experiment in a line: Specific activity, human liver microsomes. The class given is biochemical. As to conditions: pH 8.0, 37° C.; NM = not measurable at the same protein concentration as other substrates. As for the experimental part:
Comparison of the lowest detection limits of protein concentration of FAAH toward colorimetric and fluorescent substrates. In general, all assays were performed in 96-well styrene flat-bottom microtiter plates with a Spectra Max M2 spectrophotometer at 37° C. for […]. The total volume of each well was 201 μl consisting of 0.1 M sodium phosphate buffer (pH 8.0) (190 μl) containing 1% glycerol and 0.1% Triton-X 100, stock or diluted protein solution (10 μl), and the substrate solution (1 μl) in ethanol (final concentration 200 μM for 10, 11, 13 or 14) or in DMSO (final concentration 25 μM for 12, 15, or 16; 50 μM for 17). The lowest detection limits of microsomal fatty acid amide hydrolase (FAAH) by substrates were determined by the fact that the signal at 10 min after kinetic measurements are equal to or over three times the noise or basal line at 0 min. Colorimetric substrate (16) assays were performed in clear 96-well microtititer plates using an absorbance wavelength at 382 nm. The fluorescent substrates containing 5-amino-2-methoxypyridine (e.g., 10, 13) were measured at an excitation wavelength (302 nm), emission wavelength (396 nm), and auto cutoff wavelength (325 nm). Similarly, the fluorescent substrates containing 5-amino-2-methoxy-6-methylpyridine (e.g., 11, 14, and 17) were measured at an excitation wavelength (304 nm), emission wavelength (392 nm), and an auto cutoff wavelength of 325 nm. In addition, an excitation wavelength (366 nm), emission wavelength (496 nm), and auto cutoff wavelength (495 nm) were used for the substrates (e.g., 12 and 15) containing 7-amino-4-trifluoromethyl coumarin.
Specific activity determination. The assays for specific activities were performed as described above for the sensitivity assay. The specific activity presented is based on the following: 1) the signal after a 10 min enzymatic reaction was at least 3 fold the baseline signal at 0 min, and 2) the amount of hydrolyzed substrate during a 10 min period was less than 10% of the total amount of the substrate added. To correct for protein-induced fluorescence quenching, a standard curve of 5-amino-2-methoxypyridine (6) or 5-amino-2-methoxy-6-methylpyridine (8) was constructed in the presence of the same protein concentration used for the assay of that enzyme.
For orientation: Microsomes from liver hold many membrane-bound enzymes, among them those of drug oxidation.

The nature of data set [5]: Molar extinction coefficient of fluorescent reporters. The class given is physicochemical. Particulars: H2O containing 1% ethanol, 290 nm, 30° C., 10-50 μM. As for the experimental part:
Molar extinction coefficient. According to Beer's law, Aλ=ε*C*L, where Aλ is the absorbance at wavelength (λ nm); ε is called the molar extinction coefficient; L is the width of the sample cuvette; and C is the concentration of the solute. In this example, a series of concentrations falling between 10 and 50 μM (final concentration) for each fluorescent reporter was used for determination of the molar extinction coefficient. Assays were performed in a quartz cuvette (1 cm optical passage). 10 μl of a stock solution of a reporter in ethanol (1, 2, 3, 4, or 5 mM) was added to 990 μl H2O. The resulting mixture was degassed by sonication with ultrasonic cleaner Model 750 (VWR International; Wester, Pa.) for 10 seconds at a power level of 9. Measurements were performed with a Spectra Max M2 spectrophotometer (Molecular Devices; Sunnyvale, Calif.) at a wavelength of 290 nm. A slope (or extinction coefficient) was obtained by using an average absorbance of triplicate samples.

Data set [6] can be described thus: Fluorescence quantum yield. The class given is physicochemical. As to conditions: 10 μM, 1% ethanol in water, excitation 290 nm, standard 3-aminopyridine; SD under ±5%. As for the experimental part: Quantum yield. The fluorescence quantum yield, φf, was calculated according to the following equation:
ØF=Østd*(I/Istd)*(ODstd/OD)*(n/nstd)^2,
wherein ØF is the quantum yield of the tested fluorescent reporter; Østd is the fluorescence quantum yield of the standard; I and Istd are the integrated emission intensities of the sample and the standard, respectively; OD and ODstd are the absorbance of the sample and standard, respectively, at the desired wavelength λex; and n and nstd are the indexes of refraction of the sample and standard solutions, respectively (Horspool and Song (Eds.), CRC Handbook of Organic Photochemistry I, pp 234-235, CRC Press, Boca Raton, Fla., 1995).
In this example, 3-aminopyridine in water at the maximal excitation wavelength of 290 nm was used as a standard (Østd=0.32, εmax=2800 M^−1 cm^−1) (see, e.g., Weisstuch et al., J. Phys. Chem., 72:1982-1987 (1968)). In order to minimize inner filter effects, the optical densities of samples at the excitation wavelength (λ=290 nm) were kept in the range of 0.095-0.13 (less than 0.150-0.165). The final concentration of each tested sample in a quartz cuvette was 10 μM with 1% ethanol in water, same as that for the standard. The integrated area of fluorescent intensity for the standard or the samples was based on the area between 360 and 500 nm. The difference of the index of refraction between the standard and the sample was neglected because (1) all measurements were performed in the same quartz cuvette and spectrofluorimeter; (2) the final concentrations of the sample and the standard were the same; and (3) the structures of the sample and standard were very similar, i.e., only one pyridine ring. The quantum yields presented in Table 1 were based on calculation of the average of OD and integrated fluorescent intensities of triplicates. The standard deviation for each quantum yield was less than ±5%.

Data set [7] in a line: Dependence of relative fluorescent intensity on pH values. The class given is physicochemical. As to conditions: pH 6.0 to 9.0, sodium phosphate or Tris/HCl buffer, 25 μM. How it is done: The dependence of relative fluorescent intensity on pH values. 5-amino-2-methoxypyridine (6) was used to determine whether protonization/de-protonization affects the relative fluorescent intensities of the reporters. A stock solution of (6) in ethanol (5 μl, 5 mM) was added to 995 μl 0.1 M sodium phosphate buffer (from pH 6.0 to pH 8.0) or 0.1 M Tris/HCl buffer (pH 9.0) in a quartz cuvette (final substrate concentration 25 μM). Relative fluorescent unit/intensity (RFU) for emission spectra was recorded by a 2 nm interval at room temperature using a fixed excitation wavelength (λ=302 nm). The RFU of each pH value was an average of triplicates and the standard deviation for each point was less than 1%. Similarly, the RFU of the excitation spectrum was recorded by a 2 nm interval at room temperature using a fixed emission wavelength (λ=396 nm) in 0.1 M phosphate buffer (pH 8.0).

Data set [8] is described as follows: Maximal excitation and emission wavelengths. Particulars: 50 μM in 0.1 M phosphate buffer, 30° C.; SD ±2 nm. The class given is physicochemical. As for the experimental part:
Maximal excitation and emission wavelengths. A stock solution in ethanol of each compound (10 μl, 5 mM) was added to 990 μl of sodium phosphate buffer (0.1 M, pH 8.0, final substrate concentration 50 μM) in a 1-cm quartz cuvette. The quartz cuvette was scanned from 200 to 500 nm for absorption spectra with a Spectra Max M2 spectrophotometer. Maximal excitation and emission wavelengths were obtained from scanning from 250 to 600 nm and 360 to 600 nm by a 2 nm interval at 30° C., respectively.

Turning to `CCCCCCCC/C=C\CCCCCCCC(N)=O` [Oleamide, oleamide], the Selectivity ratio in data set [1] came out at 1.0. In addition, in data set [2], the Km (as a rule, the concentration of substrate that gives half-maximal velocity) was 104 µM and the Vmax (usually the rate approached at saturating substrate) is 5.7 nmol/min/mg.

In the case of `CC(=O)Nc1ccc2c(C(F)(F)F)cc(=O)oc2c1` [Compound 12, N-(4-(trifluoromethyl)-2-oxo-2H-chromen-7-yl) acetamide], the melting point (in general, the temperature of the solid-liquid transition) was 109.3 to 111.4 °C. Besides, in [3], the “Specific activity, Human liver S9” value came out at 0.18 ± 0.02 nmol/min/mg protein. Moreover, in data set [4], the “Specific activity, Human liver microsomes” value came to 0.66 ± 0.06 nmol/min/mg protein.

Regarding `CCCCCC=CCC=CCC=CCC=CCCCC(=O)Nc1ccc2c(C)cc(=O)oc2c1` [AAMCA, arachidonyl 7-amino-4-methylcoumarin amide], the Selectivity ratio in [1] came out at 2.2. In data set [2], the Km was 0.48 µM and the Vmax was 0.058 nmol/min/mg.

Take `COc1ccc(N)cn1` [Compound 6, 5-amino-2-methoxypyridine]: in data set [5], the “εmax, molar extinction coefficient” value came to 2340 M⁻¹ cm⁻¹. Besides, the “ØF, fluorescence quantum yield” value in [6] turned out to be 0.95. Moreover, the “relative fluorescent intensity of excitation or emission as function of pH” value in data set [7] is “increased with an increase of pH value”. In [8], the “Em, maximal emission wavelength” value stood at 396 nm and the “Ex, maximal excitation wavelength” value was determined as 302 nm.
